Measured values from US8883841B2, “Oncogenic ras-specific cytotoxic compound and methods of use thereof” (The Board of Regents of the University of Texas System, priority 2005, dated 2014).
Where two headings read alike, the source gives them in different places.

Key:
[1] = tested on: H1395; test: Cell viability, H1395 lung cancer cells; format: cell-based, human; settings: Homo sapiens, NCI-H1395, read-out: IC50 (−LogM) (converted)
[2] = tested on: Hct116; test: Cell viability, Hct116 colon cancer cells; format: cell-based, human; settings: Homo sapiens, HCT-116, read-out: IC50 (−LogM), Hct116, Colon (converted)
[3] = tested on: H1299 cells; test: Cell viability, H1299 lung cancer cells; format: cell-based, human; settings: Homo sapiens, NCI-H1299, read-out: IC50 (−LogM), h1299, Lung (converted)
[4] = tested on: SF-295; test: NCI in-vitro testing, SF-295 (CNS Cancer)
[5] = tested on: HKE3; test: Cell viability, HKE3 colon cancer cells; format: cell-based, human; settings: Homo sapiens
[6] = tested on: A549 cells; test: Cell viability, A549 lung cancer cells; format: cell-based, human; settings: Homo sapiens, A549, read-out: IC50 (−LogM), A549, Lung (converted)
[7] = tested on: A549CK8; test: Cell viability, A549CK8 lung cancer cells; format: cell-based, human; settings: Homo sapiens, read-out: IC50 (−LogM) (converted)
[8] = tested on: H1933; test: Cell viability, H1933 lung cancer cells; format: cell-based, human; settings: Homo sapiens, read-out: IC50 (−LogM) (converted)
[9] = tested on: MALME-3M; test: NCI in-vitro testing, MALME-3M (Melanoma)
[10] = tested on: H2009; test: Cell viability, H2009 lung cancer cells; format: cell-based, human; settings: Homo sapiens, NCI-H2009, read-out: IC50 (−LogM) (converted)
[11] = tested on: Heb44; test: Cell viability, Heb44 kidney cells; format: cell-based
[12] = tested on: CT116P53; test: Cell viability, CT116P53 colon cancer cells; format: cell-based, human; settings: Homo sapiens, read-out: IC50 (−LogM) (converted)
[13] = tested on: SW-620; test: NCI in-vitro testing, SW-620 (Colon Cancer)
[14] = tested on: H226B cells; test: Cell viability, H226B lung cancer cells; format: cell-based, human; settings: Homo sapiens
[15] = tested on: H2122; test: Cell viability, H2122 lung cancer cells; format: cell-based, human; settings: Homo sapiens, NCI-H2122, read-out: IC50 (−LogM) (converted)
[16] = tested on: AsPC-1; test: Cell viability, AsPC-1 pancreatic cancer cells; format: cell-based, human; settings: Homo sapiens, ASPC1, read-out: IC50 (−LogM), ASPC1, Pancrease (converted)
[17] = tested on: HOP-92; test: NCI in-vitro testing, HOP-92 (Non-Small Cell Lung Cancer)
[18] = tested on: KM12; test: NCI in-vitro testing, KM12 (Colon Cancer); settings: KM12
[19] = tested on: Heb46; test: Cell viability, Heb46 kidney cells; format: cell-based
[20] = tested on: Ovcar3; test: Cell viability, Ovcar3 ovary cancer cells; format: cell-based; settings: Homo sapiens, OVCAR-3
[21] = tested on: HS 578T; test: NCI in-vitro testing, HS 578T (Breast Cancer)
[22] = tested on: MCF7; test: NCI in-vitro testing, MCF7 (Breast Cancer)
[23] = tested on: UACC-62; test: NCI in-vitro testing, UACC-62 (Melanoma)
[24] = tested on: Capanc-1; test: Cell viability, Capanc-1 pancreatic cancer cells; format: cell-based, human; settings: Homo sapiens, Pancreatic cancer cell, read-out: IC50 (−LogM), capanc1, Pancrease (converted)
[25] = tested on: miapac; test: Cell viability, miapac pancreatic cancer cells; format: cell-based, human; settings: Homo sapiens, Pancreatic cancer cell, read-out: IC50 (−LogM) (converted)
[26] = tested on: DLD1; test: Cell viability, DLD1 colon cancer cells; format: cell-based, human; settings: Homo sapiens, DLD-1, read-out: IC50 (−LogM) (converted)

With O=Cc1cn(Cc2cccc(Cl)c2)c2ccccc12 [Oncrasin K027, 1-(3-chlorobenzyl)-1H-indole-3-carbaldehyde] the IC50 [1] was less than 31.6 µM, the IC50 [2] was 3.98 µM and the IC50 [3] was 15.8 µM. The GI50 ([4]; Homo sapiens, SF-295) was 1.43 µM, the CC50 ([4]; Homo sapiens, SF-295, read-out: LC50) was greater than 100 µM and the TGI ([4]; SF-295) was 3.52E−5 Molar. The “Percent Growth” value ([4]; SF-295, Log10 Concentration −4.0 Molar) was −15%, the “Percent Growth” value ([4]; SF-295, Log10 Concentration −5.0 Molar) was 18% and the “Percent Growth” value ([4]; SF-295, Log10 Concentration −6.0 Molar) was 56%. The “Percent Growth” value ([4]; SF-295, Log10 Concentration −7.0 Molar) was 80%, the “Percent Growth” value ([4]; SF-295, Log10 Concentration −8.0 Molar) was 104% and the IC50 ([5]; read-out: IC50 (−LogM), HKE3, Colon, first HKE3 line (converted)) was 1 µM. The IC50 ([5]; read-out: IC50 (−LogM), HKE3, Colon, second HKE3 line (converted)) was 1.26 µM, the IC50 [6] was 10 µM and the IC50 [7] was 15.8 µM. It also gave an IC50 [8] of less than 31.6 µM, a GI50 ([9]; Homo sapiens, Malme-3M) of 5.17 µM and a CC50 ([9]; Homo sapiens, Malme-3M, read-out: LC50) of 82 µM. The TGI ([9]; MALME-3M) was 2.37E−5 Molar, the “Percent Growth” value ([9]; MALME-3M, Log10 Concentration −4.0 Molar) was −58% and the “Percent Growth” value ([9]; MALME-3M, Log10 Concentration −5.0 Molar) was 35%. The “Percent Growth” value ([9]; MALME-3M, Log10 Concentration −6.0 Molar) was 88%, the “Percent Growth” value ([9]; MALME-3M, Log10 Concentration −7.0 Molar) was 114% and the “Percent Growth” value ([9]; MALME-3M, Log10 Concentration −8.0 Molar) was 105%. For the same compound, the IC50 [10] was less than 31.6 µM, the IC50 [11] was 0.0631 µM and the IC50 [12] was less than 31.6 µM. The GI50 ([13]; Homo sapiens, SW-620) was 0.571 µM, the CC50 ([13]; Homo sapiens, SW-620, read-out: LC50) was greater than 100 µM and the TGI ([13]; SW-620) was 1.80E−5 Molar. The “Percent Growth” value ([13]; SW-620, Log10 Concentration −4.0 Molar) was −46%, the “Percent Growth” value ([13]; SW-620, Log10 Concentration −5.0 Molar) was 16% and the “Percent Growth” value ([13]; SW-620, Log10 Concentration −6.0 Molar) was 39%. The “Percent Growth” value ([13]; SW-620, Log10 Concentration −7.0 Molar) was 83%, the “Percent Growth” value ([13]; SW-620, Log10 Concentration −8.0 Molar) was 84% and the IC50 ([14]; read-out: IC50 (−LogM), H226B, Lung, first H226B line (converted)) was 0.316 µM. For the same compound, the IC50 ([14]; read-out: IC50 (−LogM), H226B, Lung, second H226B line (converted)) was 3.98 µM, the IC50 [15] was 0.631 µM and the IC50 [16] was 15.8 µM. The “Percent Growth” value ([17]; HOP-92, Log10 Concentration −4.0 Molar) was −60%, the “Percent Growth” value ([17]; HOP-92, Log10 Concentration −5.0 Molar) was 34% and the “Percent Growth” value ([17]; HOP-92, Log10 Concentration −6.0 Molar) was 89%. The “Percent Growth” value ([17]; HOP-92, Log10 Concentration −7.0 Molar) was 81%, the “Percent Growth” value ([17]; HOP-92, Log10 Concentration −8.0 Molar) was 97% and the GI50 ([17]; Homo sapiens, HOP-92) was 5.17 µM. For the same compound, the CC50 ([17]; Homo sapiens, HOP-92, read-out: LC50) was 77.8 µM, the TGI [18] was 4.15E−5 Molar and the “Percent Growth” value ([18]; Log10 Concentration −4.0 Molar) was −54%. The “Percent Growth” value ([18]; Log10 Concentration −5.0 Molar) was 87%, the “Percent Growth” value ([18]; Log10 Concentration −6.0 Molar) was 102% and the “Percent Growth” value ([18]; Log10 Concentration −7.0 Molar) was 113%. The “Percent Growth” value ([18]; Log10 Concentration −8.0 Molar) was 108%, the IC50 [19] was 2 µM and the IC50 [20] was 3.16 µM. The TGI ([21]; HS 578T) was 2.75E−6 Molar, the “Percent Growth” value ([21]; HS 578T, Log10 Concentration −4.0 Molar) was −38% and the “Percent Growth” value ([21]; HS 578T, Log10 Concentration −5.0 Molar) was 30%. The “Percent Growth” value ([21]; HS 578T, Log10 Concentration −6.0 Molar) was 91%, the “Percent Growth” value ([21]; HS 578T, Log10 Concentration −7.0 Molar) was 98% and the “Percent Growth” value ([21]; HS 578T, Log10 Concentration −8.0 Molar) was 105%. The GI50 ([21]; Homo sapiens, Hs-578T) was 4.68 µM, the CC50 ([21]; Homo sapiens, Hs-578T, read-out: LC50) was greater than 100 µM and the GI50 ([22]; Homo sapiens, MCF7) was 0.0873 µM. For the same compound, the CC50 ([22]; Homo sapiens, MCF7, read-out: LC50) was greater than 100 µM, the TGI ([22]; MCF7) was 2.75E−5 Molar and the “Percent Growth” value ([22]; MCF7, Log10 Concentration −4.0 Molar) was −10%. The “Percent Growth” value ([22]; MCF7, Log10 Concentration −5.0 Molar) was 8%, the “Percent Growth” value ([22]; MCF7, Log10 Concentration −6.0 Molar) was 10% and the “Percent Growth” value ([22]; MCF7, Log10 Concentration −7.0 Molar) was 45%. The “Percent Growth” value ([22]; MCF7, Log10 Concentration −8.0 Molar) was 75%, the GI50 ([23]; Homo sapiens, UACC-62) was 0.0451 µM and the CC50 ([23]; Homo sapiens, UACC-62, read-out: LC50) was 11.4 µM. For the same compound, the TGI ([23]; UACC-62) was 8.97E−7 Molar, the “Percent Growth” value ([23]; UACC-62, Log10 Concentration −4.0 Molar) was −94% and the “Percent Growth” value ([23]; UACC-62, Log10 Concentration −5.0 Molar) was −47%. The “Percent Growth” value ([23]; UACC-62, Log10 Concentration −6.0 Molar) was −2%, the “Percent Growth” value ([23]; UACC-62, Log10 Concentration −7.0 Molar) was 35% and the “Percent Growth” value ([23]; UACC-62, Log10 Concentration −8.0 Molar) was 79%. It also gave an IC50 [24] of 31.6 µM, an IC50 [25] of less than 31.6 µM and an IC50 [26] of less than 31.6 µM.
